{
  "source": "patent US20250059231A1",
  "about": "“Protease inhibitors” (priority 2021, published 2025)",
  "key": {"[1]": {"tested_on": "Dengue virus 2 (DENV2, ATCC VR-1584)", "assay": "DENV2 infection in AG129 mice: clinical signs, body and spleen weights", "assay_type": "in vivo", "settings": "100 mg/kg, SC; n = 9", "method": "(§1) The purpose of this study was to determine the efficacy of the compounds on Dengue virus 2 (DENV2, ATCC® VR-1584™) infection in AG129 mice.\n(§2) Six groups of AG129 mice, 6-8 weeks old, with 9 mice per group were used to test compounds according to table 3.1.1. Animal room environment was monitored for temperature and relative humidity twice per day. The temperature range was 22° C.±3° C. and humidity range was 30-70%. The animals were provided with 12 hours light and 12 hours darkness. Feed and drinking water was provided ad libitum. Compounds 43 and 113 were tested.\nC6/36 (ATCC(CRL-1660) cell lines were grown in RPMI 1640 medium (Gibco/HiMedia) plus 5% fetal bovine serum at 28° C. Dengue virus type 2 (ATCC®VR-1584™) New Guinea C(NGC, DENV2) was passaged in BHK-21 cell cultures to make sufficient stocks for assay. Virus titer was determined by TCID50 method using BHK-21 cells.\n(§3) Twenty-four hours post treatment (Day 0), animals were injected intraperitoneally (IP) with 0.2 ml of virus suspension (˜5×10^7/animal).\nThe vehicle for tested compounds was 5% DMSO+95% (20%) hydroxypropylcyclodextrin. […] Formulations were prepared daily immediately before dosing.\n(§4) Administration of compounds and vehicle to animals started twenty four hours before infection (Day −1). Animals were treated daily (From Day-1 to day 4) as per the experimental design shown below in table 3.1.5. Animals were monitored for general clinical signs, morbidity and mortality. Body weights were measured daily.\nAnimals were sacrificed on day 5 post infection with Isoflurane followed by an overdose of CO2. Spleens were excised, measured and weighed.\n(§5) The Mean±SD Log10PFU/ml, relative Mean±SD spleen weight, Mean±SD biomarker concentrations were estimated in each group. Significant differences between group means and control were analyzed by one-way ANOVA, followed by a Dunnett's multiple comparison test, using GraphPad Prism 5 at 95% confidence levels. A p value of <0.05 was considered as significant."}, "[2]": {"tested_on": "Dengue virus 2 (DENV2, ATCC VR-1584)", "assay": "DENV2 infection in AG129 mice: viral load in plasma (plaque assay)", "assay_type": "in vivo", "settings": "100 mg/kg, SC", "method": "as §1, §2, §3, §4\nBlood was collected on days-1, 0, 1, 2, 3, 4 to 5.\nBHK-21 cells were cultured to approximately 80% confluency in 24-well plates (NUNC, NY, USA). Plasma samples were 10-fold serially diluted in RPMI 1640 (GIBCO). BHK-21 monolayers were infected with 100 μl of each virus dilution. After incubation at 37° C. and 5% CO2 atmosphere for one hour with rocking at 15 min intervals, the medium was decanted and 1 ml of 1% (w/v)carboxymethyl cellulose in RPMI supplemented with 2% FCS was added to each well. After four days incubation at 37° C. in 5% CO2, the cells were fixed with 4% paraformaldehyde and stained for 30 min with […] of 1% crystal violet dissolved in 37% formaldehyde. After thorough rinsing with water, plates were dried and the plaques were scored visually.\nas §5"}},
  "data": [
    {"smiles": "NC(=O)c1ncn([C@@H]2O[C@H](CO)[C@@H](O)[C@H]2O)n1", "note": "[Ribavirin, ribavirin, reference compound]", "values": [
      {"measurement": "Body weights of mice at the end of the study (Mean ± SD)", "setting": "[1]", "value": "20.11 ± 1.05", "unit": "g"},
      {"measurement": "Mean + SD Log10PFU/ml Plasma", "setting": "[2]; Day 2", "value": "3.34 ± 0.29", "unit": "Log10PFU/ml"},
      {"measurement": "Mean + SD Log10PFU/ml Plasma", "setting": "[2]; Day 5", "value": "3.50 ± 0.13", "unit": "Log10PFU/ml"}
    ]}
  ]
}
